In one assay the test system is platelets. The experiment in a line: Platelet intra-cellular calcium concentration (Indo-1-AM). Type of assay: cell-based, human. The note with it: TRAP-6 10 μM, vs solvent. The method, then: Freshly-isolated human platelets were incubated with either control DMSO or the indicated WASp-binding SMCs, specifically, SMC #6 (FIG. 11A), SMC #30 (FIG. 11B), SMC #33 (FIG. 11C) and SMC #34 (FIG. 11D). Platelets were stimulated with TRAP-6 and calcium levels were measured by spectrofluorometer, as described in Experimental procedures. Data are representative of three independent experiments.
Cells were incubated with 5 μM Indo-1-acetoxymethylester (Indo-1-AM, Teflabs) in Tyrode's buffer at 37° C. for 20 min. The cells were washed once, resuspended in Tyrode's buffer containing 10 mM HEPES and maintained at room temperature for 20 min. The cells were incubated at 37° C. for 5 min before measurements and then stimulated with 10 μM TRAP-6. The Ca^2+ influx was measured by spectrofluorometer using the Synergy 4 Microplate Reader (Bio Tek).
However, following receptor-mediated stimulation, platelets dramatically elevate their intra-cellular calcium concentrations, which in turn serve as signaling cues that evoke platelet effector functions, including platelet spreading, adhesion and aggregation (Varga-Sabo et al, 2009). Therefore, the ability of WASp-protecting SMCs to upregulate intra-cellular calcium accumulation in activated platelets was next tested. Freshly-isolated human platelets were incubated with SMC #6, #30, #33 and #34 or with the solvent (negative control). Following incubation, platelets were stimulated with thrombin receptor activator peptide TRAP-6 (10 μM) and calcium levels were measured by spectrofluorometer, using Indo-1-AM-based calcium assay as described in Experimental procedures.

For another assay, the target named is T1, WASp (Homo sapiens, UniProt P42768).
T1 construct: endogenous in cells; host or cells: primary human platelets from healthy donors
T1 sequence (P42768 1-502): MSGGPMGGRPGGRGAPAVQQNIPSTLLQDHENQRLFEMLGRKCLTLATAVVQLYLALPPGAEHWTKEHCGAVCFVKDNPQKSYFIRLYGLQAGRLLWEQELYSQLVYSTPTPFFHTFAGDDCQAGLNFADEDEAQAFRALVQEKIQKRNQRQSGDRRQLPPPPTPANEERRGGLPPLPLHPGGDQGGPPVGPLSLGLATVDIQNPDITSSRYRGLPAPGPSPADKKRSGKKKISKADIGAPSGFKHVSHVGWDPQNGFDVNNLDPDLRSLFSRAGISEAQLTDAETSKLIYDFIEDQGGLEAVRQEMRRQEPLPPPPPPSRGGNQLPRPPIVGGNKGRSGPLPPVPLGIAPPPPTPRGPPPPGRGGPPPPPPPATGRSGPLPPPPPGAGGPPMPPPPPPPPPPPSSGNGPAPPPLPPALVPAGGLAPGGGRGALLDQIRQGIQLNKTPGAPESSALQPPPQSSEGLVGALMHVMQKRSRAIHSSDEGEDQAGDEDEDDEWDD
The experiment in a line: WASp ubiquitylation in PBMCs (immunoprecipitation, anti-ubiquitin blot). The assay is classed as cell-based. The settings on record: vs activated negative control cells. The procedure: FIGS. 12C and 12D. show freshly-isolated PBMCs that were either co-stimulated (+) with anti-CD3 and anti-CD28 or unstimulated (−). The PBMCs were pre-incubated at 37° C. for 15 min with either DMSO or the indicated WASp-binding SMCs (FIG. 12C—SMC #6; FIG. 12D—SMC #33), followed by lysis. WASp ubiquitylation was determined by immunoprecipitation as in FIG. 12A-12B. Ubiquitylated WASp appears as a smear of bands above the MW of 65 kDa with a prominent band at […]. Blots are representative of three independent experiments.
Immunoprecipitations and western blotting analysis were performed as previously described (Reicher et al, 2012). Briefly, platelets (2×10^8 cells per sample) were lysed by the addition of an equal volume of 2× lysis buffer (30 mM HEPES pH7.4, 300 mM NaCl, 2 mM phenylmethyl sulfonyl fluoride (PMSF), 2 mM sodium orthovanadate, 2% Triton X-100 and complete protease inhibitor tablets (Roche)). MEG-01 cells (2×10^7 cells per sample) were lysed in 1.25× lysis buffer. Proteasome activity was blocked by addition of MG132 (AdooQ) to platelets and Meg-01 cell medium at final concentration of 10 μM, for 1 h before the cells were harvested. Densitometric analysis of band intensities was performed with ImageJ software, with final results normalized with WASp or GAPDH as loading controls for immunoprecipitated samples and whole-cell lysates, respectively. […]

Take `CC(=O)N[C@H]1C[C@@H](c2ccc3c(c2)nnn3C)O[C@@H](c2ccc(Cl)cc2)C1` [SMC #6, N-[(2R,4R,6S)-2-(4-chlorophenyl)-6-(1-methylbenzotriazol-5-yl)oxan-4-yl]acetamide]: in the assay with platelets, the “intra-cellular calcium concentration in activated platelets” value (“intra-cellular calcium concentration” below) is “dramatically enhanced”. For the same compound, the “ubiquitylation of WASp in active lymphocytes” value at WASp is “downregulated”. For the compound `CC1CCCC(C)N1C(=O)CSc1nnc(COc2cccc3cccnc23)o1` (centres unmarked) [SMC #34, 1-(2,6-dimethylpiperidin-1-yl)-2-[[5-(quinolin-8-yloxymethyl)-1,3,4-oxadiazol-2-yl]sulfanyl]ethanone], the “intra-cellular calcium concentration” value with platelets was “dramatically enhanced”. Consider `Cc1ccccc1N(CC(=O)NCc1ccccc1)C(=O)CCC(=O)Nc1nccs1` [SMC #33, N′-[2-(benzylamino)-2-oxoethyl]-N′-(2-methylphenyl)-N-(1,3-thiazol-2-yl)butanediamide], for which, in the assay on platelets, the “intra-cellular calcium concentration” value is given as “dramatically enhanced”. Moreover, the “ubiquitylation of WASp in active lymphocytes” value on WASp is listed as “downregulated”.

Source of the values: patent publication US12150940B2, “WASp-protecting small molecules, compositions, methods and uses thereof in the treatment of innate and acquired immune-related disorders or conditions” (BAR ILAN UNIVERSITY, priority 2016, dated 2024).
